Test system: KRAS patient-derived spheroids with HUVEC/MSC, viability
Experiment: Anticancer human tumor 323965-272-R-J2-PDC patient-derived pancreatic carcinoma cell line growth inhibition [KRAS2]
Settings: for IC50: curve of first compound; for viability, T/C: stronger effect = lower value
Method in brief: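 KRAS-mutant tumor cells were grown as spheroids with HUVEC endothelial cells and human MSCs as stroma. Targeted agents were tested alone and with KRAS pathway inhibitors. Doses started at or near clinical Cmax, or 10 microM, descending half-log.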

[1] = second compound 0.1 µM, first compound 0.0316 µM
[2] = second compound 0.1 µM, first compound 0.1 µM
[3] = second compound 0.1 µM, first compound 0.316 µM
[4] = second compound 0.1 µM, first compound 1 µM
[5] = second compound 0.1 µM, first compound 3.16 µM
[6] = second compound 0.1 µM, first compound 10 µM
[7] = second compound 0.316 µM, first compound 0.0316 µM
[8] = second compound 0.316 µM, first compound 0.1 µM
[9] = second compound 0.316 µM, first compound 0.316 µM
[10] = second compound 0.316 µM, first compound 1 µM
[11] = second compound 0.316 µM, first compound 3.16 µM
[12] = second compound 0.316 µM, first compound 10 µM
[13] = second compound 1 µM, first compound 0.0316 µM
[14] = second compound 1 µM, first compound 0.1 µM
[15] = second compound 1 µM, first compound 0.316 µM
[16] = second compound 1 µM, first compound 1 µM
[17] = second compound 1 µM, first compound 3.16 µM
[18] = second compound 1 µM, first compound 10 µM
[19] = second compound 3.16 µM, first compound 0.0316 µM
[20] = second compound 3.16 µM, first compound 0.1 µM
[21] = second compound 3.16 µM, first compound 0.316 µM
[22] = second compound 3.16 µM, first compound 1 µM
[23] = second compound 3.16 µM, first compound 3.16 µM
[24] = second compound 3.16 µM, first compound 10 µM
[25] = second compound 10 µM, first compound 0.0316 µM
[26] = second compound 10 µM, first compound 0.1 µM
[27] = second compound 10 µM, first compound 0.316 µM
[28] = second compound 10 µM, first compound 1 µM
[29] = second compound 10 µM, first compound 3.16 µM
[30] = second compound 10 µM, first compound 10 µM
[31] = second compound 0.1 µM, first compound 0.000316 µM
[32] = second compound 0.1 µM, first compound 0.001 µM
[33] = second compound 0.1 µM, first compound 0.00316 µM
[34] = second compound 0.1 µM, first compound 0.01 µM
[35] = second compound 0.316 µM, first compound 0.000316 µM
[36] = second compound 0.316 µM, first compound 0.001 µM
[37] = second compound 0.316 µM, first compound 0.00316 µM
[38] = second compound 0.316 µM, first compound 0.01 µM
[39] = second compound 1 µM, first compound 0.000316 µM
[40] = second compound 1 µM, first compound 0.001 µM
[41] = second compound 1 µM, first compound 0.00316 µM
[42] = second compound 1 µM, first compound 0.01 µM
[43] = second compound 3.16 µM, first compound 0.000316 µM
[44] = second compound 3.16 µM, first compound 0.001 µM
[45] = second compound 3.16 µM, first compound 0.00316 µM
[46] = second compound 3.16 µM, first compound 0.01 µM
[47] = second compound 10 µM, first compound 0.000316 µM
[48] = second compound 10 µM, first compound 0.001 µM
[49] = second compound 10 µM, first compound 0.00316 µM
[50] = second compound 10 µM, first compound 0.01 µM
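Note: spheroids exposed to agents for 7 days.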
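Throughout, for viability, T/C: 100% = DMSO vehicle control viability.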

## CC(C)NCC(C(=O)N1CCN(c2ncnc3c2C(C)CC3O)CC1)c1ccc(Cl)cc1 (stereo not given) + COc1cc2nc(C)nc(NC(C)c3cc(N)cc(C(F)(F)F)c3)c2cc1OC1CCOC1
Second compound 0.1 µM
  IC50: 708 nM
Second compound 0.316 µM
  IC50: 541 nM
Second compound 1 µM
  IC50: 207 nM
Second compound 3.16 µM
  IC50: 123 nM
Second compound 10 µM
  IC50: 200 nM
[1]
  viability, T/C: 84.9%
[2]
  viability, T/C: 76%
[3]
  viability, T/C: 59.7%
[4]
  viability, T/C: 45.4%
[5]
  viability, T/C: 37.2%
[6]
  viability, T/C: 31.3%
[7]
  viability, T/C: 72.1%
[8]
  viability, T/C: 71.1%
[9]
  viability, T/C: 56.2%
[10]
  viability, T/C: 42.2%
[11]
  viability, T/C: 28%
[12]
  viability, T/C: 24.5%
[13]
  viability, T/C: 72.3%
[14]
  viability, T/C: 67.3%
[15]
  viability, T/C: 39.5%
[16]
  viability, T/C: 30.1%
[17]
  viability, T/C: 27.8%
[18]
  viability, T/C: 22.6%
[19]
  viability, T/C: 61.4%
[20]
  viability, T/C: 53%
[21]
  viability, T/C: 38.2%
[22]
  viability, T/C: 28.6%
[23]
  viability, T/C: 24.8%
[24]
  viability, T/C: 21.8%
[25]
  viability, T/C: 57%
[26]
  viability, T/C: 68.9%
[27]
  viability, T/C: 41.4%
[28]
  viability, T/C: 39%
[29]
  viability, T/C: 28.4%
[30]
  viability, T/C: 26.3%

## CC(C)n1nc(-c2ccc3oc(N)nc3c2)c2c(N)ncnc21 + COc1cc2nc(C)nc(NC(C)c3cc(N)cc(C(F)(F)F)c3)c2cc1OC1CCOC1
Second compound 0.1 µM
  IC50: 1.83 nM
Second compound 0.316 µM
  IC50: 0.955 nM
Second compound 1 µM
  IC50: 0.736 nM
Second compound 3.16 µM
  IC50: 0.769 nM
Second compound 10 µM
  IC50: 1.41 nM
[31]
  viability, T/C: 67.1%
[32]
  viability, T/C: 60.1%
[33]
  viability, T/C: 40.8%
[34]
  viability, T/C: 26.4%
[1]
  viability, T/C: 19%
[2]
  viability, T/C: 14.5%
[35]
  viability, T/C: 64.5%
[36]
  viability, T/C: 48.2%
[37]
  viability, T/C: 37.1%
[38]
  viability, T/C: 23.8%
[7]
  viability, T/C: 17.4%
[8]
  viability, T/C: 15.7%
[39]
  viability, T/C: 58.1%
[40]
  viability, T/C: 47.6%
[41]
  viability, T/C: 33.1%
[42]
  viability, T/C: 24.8%
[13]
  viability, T/C: 16.7%
[14]
  viability, T/C: 14%
[43]
  viability, T/C: 54.4%
[44]
  viability, T/C: 49.4%
[45]
  viability, T/C: 30.2%
[46]
  viability, T/C: 17.7%
[19]
  viability, T/C: 12.9%
[20]
  viability, T/C: 11.8%
[47]
  viability, T/C: 58.5%
[48]
  viability, T/C: 60.2%
[49]
  viability, T/C: 32.3%
[50]
  viability, T/C: 18.4%
[25]
  viability, T/C: 9.07%
[26]
  viability, T/C: 8.86%

## CC1(C)CCC(CN2CCN(c3ccc(C(=O)NS(=O)(=O)c4ccc(NCC5CCOCC5)c([N+](=O)[O-])c4)c(Oc4cnc5[nH]ccc5c4)c3)CC2)=C(c2ccc(Cl)cc2)C1 + COc1cc2nc(C)nc(NC(C)c3cc(N)cc(C(F)(F)F)c3)c2cc1OC1CCOC1
Second compound 0.1 µM
  IC50: 1520 nM
Second compound 0.316 µM
  IC50: 1570 nM
Second compound 1 µM
  IC50: 1290 nM
Second compound 3.16 µM
  IC50: 1340 nM
Second compound 10 µM
  IC50: 591 nM
[1]
  viability, T/C: 76.6%
[2]
  viability, T/C: 80.4%
[3]
  viability, T/C: 67.8%
[4]
  viability, T/C: 72.2%
[5]
  viability, T/C: 11.2%
[6]
  viability, T/C: 2.78%
[7]
  viability, T/C: 67.7%
[8]
  viability, T/C: 77.3%
[9]
  viability, T/C: 75.2%
[10]
  viability, T/C: 71.5%
[11]
  viability, T/C: 16.8%
[12]
  viability, T/C: 3.87%
[13]
  viability, T/C: 76.2%
[14]
  viability, T/C: 84.2%
[15]
  viability, T/C: 84.3%
[16]
  viability, T/C: 60.3%
[17]
  viability, T/C: 12.5%
[18]
  viability, T/C: 2.67%
[19]
  viability, T/C: 87.4%
[20]
  viability, T/C: 80.6%
[21]
  viability, T/C: 84.7%
[22]
  viability, T/C: 65.1%
[23]
  viability, T/C: 6.04%
[24]
  viability, T/C: 2.28%
[25]
  viability, T/C: 80.7%
[26]
  viability, T/C: 79.9%
[27]
  viability, T/C: 61.1%
[28]
  viability, T/C: 41.6%
[29]
  viability, T/C: 3.41%
[30]
  viability, T/C: 1.41%

## Cn1ncnc1[C@H]1c2n[nH]c(=O)c3cc(F)cc(c23)N[C@@H]1c1ccc(F)cc1 + COc1cc2nc(C)nc(NC(C)c3cc(N)cc(C(F)(F)F)c3)c2cc1OC1CCOC1
Second compound 0.1 µM
  IC50: > 100 nM
Second compound 0.316 µM
  IC50: > 100 nM
Second compound 1 µM
  IC50: > 100 nM
Second compound 3.16 µM
  IC50: > 100 nM
Second compound 10 µM
  IC50: > 100 nM
[31]
  viability, T/C: 85.1%
[32]
  viability, T/C: 82.1%
[33]
  viability, T/C: 86.3%
[34]
  viability, T/C: 73.6%
[1]
  viability, T/C: 76%
[2]
  viability, T/C: 70%
[35]
  viability, T/C: 79.1%
[36]
  viability, T/C: 81.4%
[37]
  viability, T/C: 71.9%
[38]
  viability, T/C: 74.9%
[7]
  viability, T/C: 65.2%
[8]
  viability, T/C: 61.5%
[39]
  viability, T/C: 73.3%
[40]
  viability, T/C: 80.5%
[41]
  viability, T/C: 69%
[42]
  viability, T/C: 67.2%
[13]
  viability, T/C: 63.8%
[14]
  viability, T/C: 58.1%
[43]
  viability, T/C: 79.8%
[44]
  viability, T/C: 71.6%
[45]
  viability, T/C: 69.6%
[46]
  viability, T/C: 64.4%
[19]
  viability, T/C: 65.2%
[20]
  viability, T/C: 61%
[47]
  viability, T/C: 75.1%
[48]
  viability, T/C: 79.8%
[49]
  viability, T/C: 76.8%
[50]
  viability, T/C: 78.4%
[25]
  viability, T/C: 67%
[26]
  viability, T/C: 62.4%
